Values quoted from earlier work, collected in patent US5028528A, “Analytical element for theophylline determination using buffer in a subbing zone” (Eastman Kodak Company, priority 1988, dated 1991).

Conditions: in a patient

## Cn1c(=O)c2[nH]cnc2n(C)c1=O [Theophylline]
  therapeutic range of use: 1 to 2 mg/dL
